Data on 22 molecules can be found in PubChem BioAssay AID330 (DTP/NCI, 2004).

In the experiment the test system is P388 leukemia ip, CD2F1 mice, survival T/C. Put plainly: NCI In Vivo Anticancer Drug Screen. Data for tumor model P388 Leukemia (intraperitoneal) in CD2F1 (CDF1) mice. Particulars: endpoint: median survival time, higher = longer survival. In a few lines:
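Mice carrying the transplanted tumor received test compound or vehicle. Survival was recorded in each group, and the value is the treated-group measurement divided by that of the vehicle-treated control group.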

Where [1] appears, read: dose: 50.0 mg/kg/injection, schedule: Q01DX005 (ip), vehicle: saline with Tween-80.
Setting [2] is: dose: 100.0 mg/kg/injection, schedule: Q01DX005 (ip), vehicle: saline with Tween-80.
Where [3] appears, read: dose: 200.0 mg/kg/injection, schedule: Q01DX005 (ip), vehicle: saline with Tween-80.
The mark [4] stands for this setting: dose: 100.0 mg/kg/injection, schedule: Q04DX003 (ip), vehicle: saline with Tween-80.
Setting [5] is: dose: 200.0 mg/kg/injection, schedule: Q04DX003 (ip), vehicle: saline with Tween-80.
Setting [6] is: dose: 100.0 mg/kg/injection, schedule: Q01DX009 (ip), vehicle: saline with Tween-80.
Setting [7] is: dose: 200.0 mg/kg/injection, schedule: Q01DX009 (ip), vehicle: saline with Tween-80.
The mark [8] stands for this setting: dose: 400.0 mg/kg/injection, schedule: Q04DX003 (ip), vehicle: saline with Tween-80.
Setting [9] is: dose: 60.0 mg/kg/injection, schedule: Q01DX005 (ip), vehicle: Klucel (hydroxypropylcellulose) (HPC).
Setting [10] is: dose: 120.0 mg/kg/injection, schedule: Q01DX005 (ip), vehicle: Klucel (hydroxypropylcellulose) (HPC).
Setting [11] is: dose: 240.0 mg/kg/injection, schedule: Q01DX005 (ip), vehicle: Klucel (hydroxypropylcellulose) (HPC).
Setting [12] is: dose: 50.0 mg/kg/injection, schedule: Q01DX009 (ip), vehicle: Klucel (hydroxypropylcellulose) (HPC).
Where [13] appears, read: dose: 100.0 mg/kg/injection, schedule: Q01DX009 (ip), vehicle: Klucel (hydroxypropylcellulose) (HPC).
[14] abbreviates: dose: 50.0 mg/kg/injection, schedule: Q01DX009 (ip), vehicle: saline with Tween-80.

Several values for one entry are separate records, joined by “and”; a condition that tells them apart may be missing. Equal entries are not always repeated. Inconclusive results and toxic doses are left out.

Regarding `c1ccc(C2SCC3(CCCCC3)CS2)cc1`, the T/C (dose: 25.0 mg/kg/injection, schedule: Q01DX005 (ip), vehicle: saline with Tween-80) was 98 % of control; the T/C (dose: 50.0 mg/kg/injection, schedule: Q01DX001 (ip), vehicle: saline with Tween-80) is 101 % of control; the T/C under setting [1] was 100 % of control; the T/C (dose: 100.0 mg/kg/injection, schedule: Q01DX001 (ip), vehicle: saline with Tween-80) is 101 % of control; the T/C under setting [2] was 100 % of control; the T/C (dose: 200.0 mg/kg/injection, schedule: Q01DX001 (ip), vehicle: saline with Tween-80) was 94 % of control. Further, the T/C by setting is: under setting [3], 98 % of control; (dose: 400.0 mg/kg/injection, schedule: Q01DX001 (ip), vehicle: saline with Tween-80) 88 % of control.
In the case of `CCSc1ncnc2c1ncn2C1OC(CO)C(O)C1O` (stereo not given), the T/C is 104 % of control under setting [4] and 109 % of control under setting [5].
With `O=P(N1CCCC1)(N1CC1)N1CC1`, the T/C runs as follows: (dose: 6.25 mg/kg/injection, schedule: Q01DX009 (ip), vehicle: saline) 109 % of control; (dose: 8.3 mg/kg/injection, schedule: Q04DX003 (ip), vehicle: saline) 172 % of control; (dose: 12.5 mg/kg/injection, schedule: Q01DX009 (ip), vehicle: saline) 90 % of control; (dose: 12.5 mg/kg/injection, schedule: Q04DX003 (ip), vehicle: saline) 209 % of control; (dose: 18.7 mg/kg/injection, schedule: Q04DX003 (ip), vehicle: saline) 236 % of control.
Take `O=[N+]([O-])c1cccc(SNSc2cccc([N+](=O)[O-])c2)c1`: the T/C runs as follows: (dose: 100.0 mg/kg/injection, schedule: Q04DX002 (ip), vehicle: Klucel (hydroxypropylcellulose) (HPC)) 90 % of control; (dose: 200.0 mg/kg/injection, schedule: Q04DX002 (ip), vehicle: Klucel (hydroxypropylcellulose) (HPC)) 88 % of control; (dose: 400.0 mg/kg/injection, schedule: Q04DX002 (ip), vehicle: Klucel (hydroxypropylcellulose) (HPC)) 94 % of control.
On to `O=C(N/N=C/c1cccc(O)c1O)N/N=C/c1cccc(O)c1O`, for which the T/C is, setting by setting: (dose: 25.0 mg/kg/injection, schedule: Q01DX009 (ip), vehicle: distilled water + Tween-80) 104 % of control and 109 % of control; (dose: 50.0 mg/kg/injection, schedule: Q01DX009 (ip), vehicle: distilled water + Tween-80) 109 % of control (2×) and 116 % of control; (dose: 100.0 mg/kg/injection, schedule: Q01DX009 (ip), vehicle: distilled water + Tween-80) 118 % of control and 119 % of control; (dose: 200.0 mg/kg/injection, schedule: Q01DX009 (ip), vehicle: distilled water + Tween-80) 118 % of control and 95 % of control; (dose: 400.0 mg/kg/injection, schedule: Q01DX009 (ip), vehicle: distilled water + Tween-80) 91 % of control.
In the case of `CCCCCCCCCCCCCCCCOc1ccccc1CNc1cc(Cl)ccc1Cl`, the T/C reads like this: under setting [6], 100 % of control; under setting [4], 100 % of control; under setting [7], 91 % of control; under setting [5], 100 % of control; (dose: 400.0 mg/kg/injection, schedule: Q01DX009 (ip), vehicle: saline with Tween-80) 100 % of control; under setting [8], 86 % of control.
Take `S=c1sscc1-c1ccc2ccccc2c1`: the T/C reads like this: under setting [5], 90 % of control; under setting [8], 97 % of control.
With `CC(C)C1=CC(=O)C2=C(CCC3C4=C(CCC23C)C(=O)OC4)C1=O` (stereo not given), the T/C is, setting by setting: (dose: 6.25 mg/kg/injection, schedule: Q01DX009 (ip), vehicle: DMSO) 105 % of control; (dose: 12.5 mg/kg/injection, schedule: Q01DX009 (ip), vehicle: DMSO) 113 % of control; (dose: 25.0 mg/kg/injection, schedule: Q01DX009 (ip), vehicle: DMSO) 98 % of control.
Consider `CCO/C=C(\C)CC1([N+](=O)[O-])C(=O)c2ccccc2C1=O`, for which the T/C by setting is: under setting [9], 107 % of control; under setting [10], 107 % of control; under setting [11], 117 % of control.
Regarding `CCOC(=O)c1ccc(NC(=O)Oc2ccccc2C(=O)OC)cc1`, the T/C is, setting by setting: (dose: 60.0 mg/kg/injection, schedule: Q01DX005 (ip), vehicle: saline with Tween-80) 100 % of control; (dose: 120.0 mg/kg/injection, schedule: Q01DX005 (ip), vehicle: saline with Tween-80) 100 % of control; (dose: 240.0 mg/kg/injection, schedule: Q01DX005 (ip), vehicle: saline with Tween-80) 95 % of control.
As for `CCOC(=O)c1cc(Cl)cc2c(=O)c3c(O)c4[nH]c5c(C(=O)OCC)cc(Cl)cc5c(=O)c4c(O)c3[nH]c12`, the T/C reads like this: under setting [12], 97 % of control; under setting [13], 106 % of control.
Consider `COC(=O)CCSC(=O)Nc1cccc(C(F)(F)F)c1`, for which the T/C is 97 % of control (dose: 50.0 mg/kg/injection, schedule: Q01DX005 (ip), vehicle: Klucel (hydroxypropylcellulose) (HPC)); 98 % of control (dose: 100.0 mg/kg/injection, schedule: Q01DX005 (ip), vehicle: Klucel (hydroxypropylcellulose) (HPC)); 104 % of control (dose: 200.0 mg/kg/injection, schedule: Q01DX005 (ip), vehicle: Klucel (hydroxypropylcellulose) (HPC)).
As to `O=c1[nH]c2cc(Cl)ccc2nc1/C=C(\O)c1ccccn1`, the T/C is, setting by setting: under setting [9], 92 % of control; under setting [10], 91 % of control; under setting [11], 93 % of control.
With `S=C(Nc1ccccc1)NC1SNC(=Nc2ccccc2)N1c1ccccc1` (stereo not given), the T/C reads like this: under setting [1], 106 % of control; under setting [2], 95 % of control; under setting [3], 95 % of control.
As for `Cc1cc(=O)n2c(nc3cc([N+](=O)[O-])ccc32)s1`, the T/C reads like this: under setting [12], 98 % of control; under setting [13], 99 % of control; (dose: 200.0 mg/kg/injection, schedule: Q01DX009 (ip), vehicle: Klucel (hydroxypropylcellulose) (HPC)) 98 % of control.
`CN(C)CC1(c2ccccc2)C(=O)N(C)C(=O)N(C2CCCCC2)C1=O` (stereo not given): the T/C was 100 % of control under setting [14], 105 % of control under setting [6] and 115 % of control under setting [7].
In the case of `COc1ccc2c3c(ccc2c1)CC1CCCN1C3` (stereo not given), the T/C runs as follows: (dose: 50.0 mg/kg/injection, schedule: Q01DX005 (ip), vehicle: other) 116 % of control; (dose: 100.0 mg/kg/injection, schedule: Q01DX005 (ip), vehicle: other) 104 % of control.
As for `COc1cc2c(cc1OC)C(Cc1cc(OC)c(OC)cc1[N+](=O)[O-])=[N+](C)CC2`, the T/C runs as follows: (dose: 25.0 mg/kg/injection, schedule: Q01DX009 (ip), vehicle: other) 98 % of control; (dose: 50.0 mg/kg/injection, schedule: Q01DX009 (ip), vehicle: other) 96 % of control; (dose: 100.0 mg/kg/injection, schedule: Q01DX009 (ip), vehicle: other) 102 % of control.
On to `C=COC(=O)N(C)C`, for which the T/C by setting is: (dose: 25.0 mg/kg/injection, schedule: Q01DX009 (ip), vehicle: saline) 110 % of control; (dose: 50.0 mg/kg/injection, schedule: Q01DX009 (ip), vehicle: saline) 118 % of control; (dose: 100.0 mg/kg/injection, schedule: Q01DX009 (ip), vehicle: saline) 115 % of control; (dose: 200.0 mg/kg/injection, schedule: Q01DX009 (ip), vehicle: saline) 120 % of control.
Take `O=P(c1ccccc1)(c1ccccc1)c1ccccc1.O=P(c1ccccc1)(c1ccccc1)c1ccccc1.O=P(c1ccccc1)(c1ccccc1)c1ccccc1.O=P(c1ccccc1)(c1ccccc1)c1ccccc1.[Ni+2].[O-][Cl+3]([O-])([O-])O`: the T/C was 96 % of control (dose: 12.5 mg/kg/injection, schedule: Q01DX009 (ip), vehicle: saline with Tween-80); 101 % of control (dose: 25.0 mg/kg/injection, schedule: Q01DX009 (ip), vehicle: saline with Tween-80); 90 % of control and 95 % of control under setting [14].
Take `O=C(O)c1cccnc1Cl`: the T/C under setting [14] was 103 % of control, the T/C under setting [6] is 96 % of control and the T/C under setting [7] is 100 % of control.
In the case of `O=C1OCCC1(S)C(O)c1ccccc1` (stereo not given), the T/C is 103 % of control (dose: 21.25 mg/kg/injection, schedule: Q01DX005 (ip), vehicle: acetone); 100 % of control (dose: 42.5 mg/kg/injection, schedule: Q01DX005 (ip), vehicle: acetone); 103 % of control (dose: 85.0 mg/kg/injection, schedule: Q01DX005 (ip), vehicle: acetone).
